Patent US7737182B2, “Pharmaceuticals for xerosis” (Taisho Pharmaceutical Co., Ltd., priority 2001, dated 2010)

Legend:
[1] = target: T1, thromboxane (TP) receptor (Homo sapiens, UniProt P21731); experiment: Human TP antagonistic action: [3H]SQ29548 binding to human washed platelets
T1 construct: endogenous in cells; host or cells: human washed platelets
T1 sequence (P21731 1-343): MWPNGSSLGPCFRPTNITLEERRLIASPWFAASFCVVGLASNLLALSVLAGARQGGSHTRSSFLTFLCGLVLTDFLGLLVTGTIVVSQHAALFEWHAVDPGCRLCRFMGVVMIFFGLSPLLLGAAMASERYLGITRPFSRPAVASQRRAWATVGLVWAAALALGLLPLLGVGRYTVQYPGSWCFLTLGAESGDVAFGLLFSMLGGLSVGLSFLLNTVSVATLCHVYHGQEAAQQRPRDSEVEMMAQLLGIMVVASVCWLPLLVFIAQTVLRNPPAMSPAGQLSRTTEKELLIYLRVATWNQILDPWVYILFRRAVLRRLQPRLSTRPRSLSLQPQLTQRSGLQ
Method: (C) The effect of the active ingredient of the present invention (compound No. 7) on a thromboxane (TP) receptor was measured as compared with the thromboxane agonist U44069 as a positive control drug.
The antagonistic action of the test drug on the [^3H]SQ29548 binding to human washed platelets was investigated on the basis of a documented method (J. Pharmacol. Exp. Ther., vol. 245, pp. 786-792, 1988).

[2] = test system: NC mice induced to manifest dermatitis; experiment: Dermatitis score in dermatitis manifesting NC mouse models (Test Example 2); assay type: in vivo; details: 0.01% in 100% ethanol, 200 μl on dorsal back, seven times a week for 4 weeks
Method: By suitably modifying a method known to the skilled artisan (Jpn. J. Pharmacol. 76, 175-183 (1998) Jun Hiroi, et al. Effects of Tacrolimus Hydrate (FK-506) Ointment on Spontaneous Dermatitis in NC/Nga Mice), the following test was conducted in order to confirm the antipruritic effect of compounds of the invention.
Animals: Four-week old SPF NC mice (male) were purchased from Japan SLC; right after their arrival, the SPF NC mice were kept together with dermatitis manifesting male NC mice (older than 20 weeks) for 2 weeks under the following conditions so as to induce itch-evoked scratching behavior. […]
Drug administration: To the dorsal backs of the 20-wk NC mice that were induced to manifest dermatitis as the result of cohabitation with the spontaneous dermatitis manifesting NC mice, 100% ethanol, compound No. 7 (0.01%) dissolved in 100% ethanol or tacrolimus (0.1%) dissolved in 100% ethanol was applied from an Eppendorf pipette in 200-μl doses seven times a week for a period of 4 weeks. […] Dermatitis score: Dermatitic symptoms were observed and measured once a week. […]

[3] = test system: NC/Nga mice manifesting atopic dermatitis; experiment: Spontaneous itch-evoked scratching behavior of NC mice (Test Example 1); assay type: in vivo
Method: About 20-week old NC/Nga mice each weighing about 30 g and manifesting atopic dermatitis were purchased from SLC and subjected to the following experiment. A magnet was buried in both hind paws of each mouse and by detecting its magnetism, the movement of the paws was measured with an itch measuring system (product of Neuroscience; when the mouse makes an action, the magnets move accordingly and a current flows through the coil; the moving magnets cause a change in the current, which is detected, measured and analyzed). Among the scratching actions, those lasting 1.5 seconds or longer were considered itch-evoked and their number was counted continuously. […] The subsequent 24-hr itch-evoked scratching behavior was measured and the number of itch-evoked scratchings after drug administration was compared with the initial count. The experimental data was processed to calculate the percent itch suppression on the basis of the total 24-hr itch-evoked scratching counts before and after drug application. For significance testing, the itch-evoked scratching counts that were obtained before and after drug application from individual animals in each group treated with a specific concentration of drug were processed by a paired t-test. Percent itch suppression (%)=(itch-evoked scratching count before drug application−itch-evoked scratching count after drug application)×100/itch-evoked scratching count before drug application (Results)

guinea pig platelets = experiment: Suppression of ADP-induced aggregation of guinea pig platelets; assay type: cell-based; details: Cavia porcellus; guinea pig platelet-rich plasma, ADP (3 μM)
Method: Ten-week-old Hartley male guinea pigs were anesthetized with pentobarbital (30 mg/kg, i.p. injected) and a total of 20 mL of blood was sampled into a syringe containing 2.0 mL of 3.8% sodium citrate. The blood was immediately centrifuged at 900 rpm for 10 minutes at 20° C. to recover the supernatant PRP. By further centrifugation at 3000 rpm for 10 minutes at 20° C., the supernatant PPP was recovered. The platelet count of PRP was diluted with PPP to 30×10^4 platelets/μL for subsequent use.
For platelet aggregation measurement, a platelet aggregation measuring instrument (PAM-8C) was employed. To 274 μL of PRP, 1 μL of a 0.287-95.7 nM test drug solution in ethanol was added and the mixture was incubated at 37° C. for 3 minutes with stirring at 1000 rpm. After the incubation, 25 μL of ADP (3 μM) was added to induce platelet aggregation and a maximum percent aggregation for 5 minutes was measured.
The percent suppression of aggregation by each test drug was calculated from the maximum percent aggregation by the test drug as relative to the maximum percent aggregation by ethanol instead of the test drug solution and IC50 values were determined from the constructed dose-response curve.

[4] = test system: Fifty-week-old BALB/c male mice; experiment: Aged mouse skin's barrier function, treatment test, TEWL (Test Example 7); assay type: in vivo; details: 50-week-old mice; 0.0001% in ethanol, 200 μL, once a day for 3 days
Method: Fifty-week-old BALB/c male mice (eight in each group) were shaven in a rostral dorsolateral area of 4 cm^2 (2 cm×2 cm) with electric clippers. Starting on the next day, a solvent (ethanol, 200 μL) or a drug dissolved in the solvent (compound No. 7 or PGD2, each being at 0.0001% in an amount of 200 μL) was applied to the shaven site for 3 days on once-a-day basis.
On the day next to the third application of the solvent or drug, TEWL at the same site was measured with Tewameter (TM210 of Courage & Khazawa, Germany) to evaluate the drug's action.

For `O=C(O)CSCCCC[C@@H]1[C@@H](C#C[C@@H](O)C2CCCCC2)[C@H](O)C[C@H]1Cl` [Compound No. 7], the inhibition at 1 µM ([1]; 1 μM) was 7%, the inhibition at 10 µM ([1]; concentration of 10 μM) was 28% and the “dermatitis score suppressing action compared to the vehicle group” value [2] was “significant dermatitis score suppressing action”. For the same molecule, the “Inhibition rate (%) (percent itch suppression)” value ([3]; concentration 0.000001% in 100% ethanol, 0.2 ml/mouse on dorsal skin, 24-hr scratching counts before vs after) was 43.26%, the “Efficacy (significance, paired t-test)” value ([3]; concentration 0.000001%, scratching counts before vs after application) was “** (**: P < 0.01)” and the IC50 (guinea pig platelets) was 6.2 ± 2.3 nM. For the same molecule, the “transepidermal water loss (TEWL) compared to the control group” value [4] was “significant decrease in TEWL”.
